Laboratory results taken from the supplement of paper PMC10307832.

Legend:
Assay in all cases: relative viability (nuclei count vs DMSO), 5 days (fraction); higher = more cells survive
Dabrafenib + Trametinib = compound: CC(C)(C)c1nc(-c2cccc(NS(=O)(=O)c3c(F)cccc3F)c2F)c(-c2ccnc(N)n2)s1 [Dabrafenib] + CC(=O)Nc1cccc(-n2c(=O)n(C3CC3)c(=O)c3c(Nc4ccc(I)cc4F)n(C)c(=O)c(C)c32)c1 [Trametinib] (partner 0.02 µM)
Summary of the method: (§1)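 Lung cancer cell lines in 1536-well plates got either a single drug or a fixed anchor-drug dose together with five library-drug doses (not always all listed) in √10 steps, by pin tool, on the day after seeding. Nuclei were counted after 5 days, and relative viability is the treated-to-vehicle ratio of nuclei counts. Values are medians of duplicate plates.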

Dabrafenib + Luminespib = compound: CC(C)(C)c1nc(-c2cccc(NS(=O)(=O)c3c(F)cccc3F)c2F)c(-c2ccnc(N)n2)s1 [Dabrafenib] + CCNC(=O)c1noc(-c2cc(C(C)C)c(O)cc2O)c1-c1ccc(CN2CCOCC2)cc1 [Luminespib] (partner 0.01 µM)
Summary of the method: as §1

VX-702 + Pictilisib = compound: NC(=O)c1ccc(N(C(N)=O)c2c(F)cccc2F)nc1-c1ccc(F)cc1F [VX-702] + CS(=O)(=O)N1CCN(Cc2cc3nc(-c4cccc5[nH]ncc45)nc(N4CCOCC4)c3s2)CC1 [Pictilisib] (partner 1 µM)
Summary of the method: as §1

VX-702 + Olaparib = compound: NC(=O)c1ccc(N(C(N)=O)c2c(F)cccc2F)nc1-c1ccc(F)cc1F [VX-702] + O=C(c1cc(Cc2n[nH]c(=O)c3ccccc23)ccc1F)N1CCN(C(=O)C2CC2)CC1 [Olaparib] (partner 8 µM)
Summary of the method: as §1

| Cell Line | relative viability (Dabrafenib + Trametinib; first compound 0.009487 µM) | relative viability (Dabrafenib + Trametinib; first compound 0.03 µM) | relative viability (Dabrafenib + Trametinib; first compound 0.09487 µM) | relative viability (Dabrafenib + Trametinib; first compound 0.3 µM) | relative viability (Dabrafenib + Luminespib; first compound 0.009487 µM) | relative viability (Dabrafenib + Luminespib; first compound 0.03 µM) | relative viability (Dabrafenib + Luminespib; first compound 0.09487 µM) | relative viability (Dabrafenib + Luminespib; first compound 0.3 µM) | relative viability (VX-702 + Pictilisib; first compound 0.02 µM) | relative viability (VX-702 + Pictilisib; first compound 0.2 µM) | relative viability (VX-702 + Pictilisib; first compound 0.6325 µM) | relative viability (VX-702 + Pictilisib; first compound 2 µM) | relative viability (VX-702 + Olaparib; first compound 0.02 µM) | relative viability (VX-702 + Olaparib; first compound 0.2 µM) | relative viability (VX-702 + Olaparib; first compound 0.6325 µM) | relative viability (VX-702 + Olaparib; first compound 2 µM) | relative viability (Dabrafenib + Trametinib; first compound 0.003 µM) | relative viability (Dabrafenib + Luminespib; first compound 0.003 µM) |
| --- | --- | --- | --- | --- | --- | --- | --- | --- | --- | --- | --- | --- | --- | --- | --- | --- | --- | --- |
| NCI-H596 | 0.84 | 0.707 | 0.747 | 0.704 | 1.03 | 0.691 | 0.885 | 0.927 | 0.398 | 0.246 | 0.392 | 0.389 | 0.66 | 0.714 | 0.898 | 0.685 | – | – |
| NCI-H647 | 0.394 | 0.306 | 0.579 | 0.553 | 0.282 | 0.138 | 0.19 | 0.217 | 0.479 | 0.432 | 0.461 | 0.644 | 0.752 | 0.509 | 0.427 | 0.744 | 0.42 | – |
| NCI-H650 | 0.913 | 1.01 | 0.942 | 1.04 | 0.832 | 0.688 | 0.56 | 0.461 | 0.745 | – | 0.821 | 1.05 | 0.435 | 0.433 | 0.452 | 0.456 | – | – |
| NCI-H661 | 0.527 | 0.59 | 0.556 | 0.568 | 0.927 | 0.912 | 0.758 | 0.855 | 0.395 | 0.458 | 0.426 | 0.421 | 0.752 | 0.73 | 0.756 | 0.798 | 0.562 | 0.985 |
| NCI-H727 | 0.353 | – | 0.417 | 0.354 | 0.339 | 0.324 | – | 0.414 | 0.343 | 0.302 | 0.382 | 0.356 | 0.67 | 0.789 | 0.72 | 0.555 | 0.355 | – |
| NCI-H838 | 0.614 | 0.428 | 0.429 | 0.506 | 0.311 | 0.236 | 0.292 | 0.275 | 0.467 | 0.408 | 0.517 | 0.47 | 0.772 | 0.715 | 0.827 | 0.926 | 0.51 | 0.35 |
| NCI-H1355 | 0.509 | 0.456 | 0.471 | 0.535 | 0.83 | 0.611 | 0.628 | 0.69 | 0.514 | 0.439 | 0.338 | 0.46 | 0.752 | 0.729 | 0.785 | 0.876 | – | – |
| NCI-H1395 | 1.18 | 0.988 | 0.889 | 0.984 | 0.755 | 0.661 | 0.657 | 0.567 | 0.572 | 0.595 | 0.607 | 0.662 | 0.447 | 0.46 | 0.502 | 0.448 | – | 0.663 |
| NCI-H1437 | 0.502 | 0.688 | 0.579 | 0.73 | 1.13 | 1.17 | 1.17 | 1.14 | 0.499 | 0.428 | 0.446 | 0.53 | 0.656 | 0.633 | 0.643 | 0.691 | 0.522 | 1.15 |
| NCI-H1650 | 0.609 | 0.552 | 0.666 | 0.673 | 0.201 | 0.229 | 0.221 | 0.188 | 0.641 | 0.326 | 0.596 | 0.586 | 0.78 | 0.813 | 0.806 | 1.16 | 0.671 | 0.172 |
| NCI-H1651 | 0.843 | 0.823 | 0.861 | 0.814 | 0.87 | 0.789 | 0.831 | 0.608 | 0.649 | 0.645 | 0.668 | 0.57 | 0.178 | 0.174 | 0.183 | 0.151 | 0.85 | 0.65 |
| NCI-H1666 | 0.782 | 0.837 | 0.832 | 0.885 | 0.995 | 1.04 | 0.997 | 1.11 | 0.513 | 0.439 | 0.454 | 0.263 | 0.804 | 0.754 | 0.826 | 0.733 | 0.818 | 0.988 |
| NCI-H1734 | 0.718 | 0.627 | 0.721 | 0.727 | 0.175 | 0.207 | 0.203 | 0.198 | 0.516 | 0.388 | 0.388 | 0.346 | 0.637 | 0.547 | 0.51 | 0.523 | – | – |
| NCI-H1755 | 0.733 | 0.758 | 0.75 | 0.749 | 0.542 | 0.434 | 0.519 | 0.577 | 0.395 | 0.389 | 0.409 | 0.486 | 0.911 | 0.897 | 0.799 | 0.876 | 0.779 | 0.407 |
| NCI-H1792 | 0.484 | 0.405 | 0.439 | 0.474 | 0.474 | 0.412 | 0.423 | 0.538 | 0.228 | 0.222 | 0.22 | 0.247 | 0.396 | 0.434 | 0.356 | 0.444 | – | – |
| NCI-H1793 | 0.416 | – | 0.451 | 0.412 | 0.231 | – | – | 0.175 | 0.311 | 0.262 | 0.389 | 0.252 | 0.939 | – | 0.858 | 1.01 | – | – |
| NCI-H1915 | 0.249 | 0.264 | 0.288 | 0.313 | 0.706 | 0.61 | 0.523 | 0.62 | 1.14 | 0.848 | 0.949 | 1.1 | 0.28 | 0.257 | 0.238 | 0.241 | 0.295 | 0.981 |
| NCI-H1944 | 0.426 | 0.403 | 0.401 | 0.404 | 0.839 | 0.733 | 0.682 | 0.717 | 0.362 | 0.333 | 0.326 | 0.284 | 0.413 | 0.435 | 0.432 | 0.403 | 0.409 | 0.707 |
| NCI-H1975 | 0.316 | 0.317 | 0.321 | 0.367 | 0.189 | 0.165 | 0.278 | 0.191 | 0.27 | 0.283 | 0.384 | 0.316 | 0.792 | 0.746 | 0.809 | 1.1 | 0.214 | 0.159 |
